Measurements published in ChEMBL document CHEMBL5375961, “Design, Synthesis, and Biological Evaluation of Trisubstituted Piperazine Derivatives as Noncovalent Severe Acute Respiratory Syndrome Coronavirus 2 Main Protease Inhibitors with Improved Antiviral Activity and Favorable Druggability” (J Med Chem, 2023).

Columns and labels:
SARS-CoV-2 [1] = experiment: Antiviral activity against SARS-CoV-2 infected in African green monkey Vero E6 cells assessed as reduction in viral replication preincubated with compound followed by viral infection for 1 hr measured after 25 to 26 hrs by ELISA; type: functional, organism-based, Severe acute respiratory syndrome coronavirus 2
[2] = target: Replicase polyprotein 1ab (Severe acute respiratory syndrome coronavirus 2, UniProt P0DTD1); experiment: Inhibition of SARS CoV-2 MPro using MCA-AVLQSGFR-Lys(Dnp)-Lys-NH2 as substrate preincubated for 10 mins followed by substrate addition measured for 10 mins by FRET assay
[3] = (§1) Cytotoxicity in African green monkey Vero E6 cells […] by Neutral red release assay; type: toxicity, cell-based, Vero C1008; conditions: chlorocebus sabaeus, Vero E6 cells
[4] = Half life in Sprague-Dawley rat at 2 mg/kg, iv measured for 0.033 to 24 hrs by LC-MS/MS analysis; type: ADME, organism-based; conditions: in vivo, time 0.033-24 hrs
[5] = AUC (0 to infinity) in Sprague-Dawley rat at 2 mg/kg, iv measured for 0.033 to 24 hrs by LC-MS/MS analysis; type: ADME, organism-based; parameters: time 0.033-24 hrs, dose 2 mg/kg, route iv; conditions: in vivo
[6] = AUC (0 to t) in Sprague-Dawley rat at 10 mg/kg, po measured for 0.083 to 24 hrs by LC-MS/MS analysis; type: ADME, organism-based; parameters: time 0.083-24 hrs, dose 10 mg/kg, route po; conditions: in vivo
[7] = Cmax in Sprague-Dawley rat at 10 mg/kg, po measured for 0.083 to 24 hrs by LC-MS/MS analysis; type: ADME, organism-based; parameters: time lower 0.083 hrs, dose 10 mg/kg, time upper 24 hrs, route po; conditions: in vivo
[8] = AUC (0 to t) in Sprague-Dawley rat at 2 mg/kg, iv measured for 0.033 to 24 hrs by LC-MS/MS analysis; type: ADME, organism-based; parameters: time lower 0.033 hrs, dose 2 mg/kg, time upper 24 hrs, route iv; conditions: in vivo
[9] = Volume of distribution in Sprague-Dawley rat at 2 mg/kg, iv measured for 0.033 to 24 hrs by LC-MS/MS analysis; type: ADME, organism-based; conditions: in vivo, time 0.033-24 hrs
[10] = Cmax in Sprague-Dawley rat at 2 mg/kg, iv measured for 0.033 to 24 hrs by LC-MS/MS analysis; type: ADME, organism-based; parameters: time upper 24 hrs, dose 2 mg/kg, time lower 0.033 hrs, route iv; conditions: in vivo
[11] = Tmax in Sprague-Dawley rat at 2 mg/kg, iv measured for 0.033 to 24 hrs by LC-MS/MS analysis; type: ADME, organism-based; conditions: in vivo, time 0.033-24 hrs
[12] = Half life in Sprague-Dawley rat at 10 mg/kg, po measured for 0.083 to 24 hrs by LC-MS/MS analysis; type: ADME, organism-based; conditions: in vivo, time 0.083-24 hrs
[13] = Tmax in Sprague-Dawley rat at 10 mg/kg, po measured for 0.083 to 24 hrs by LC-MS/MS analysis; type: ADME, organism-based; conditions: in vivo, time 0.083-24 hrs
[14] = AUC (0 to infinity) in Sprague-Dawley rat at 10 mg/kg, po measured for 0.083 to 24 hrs by LC-MS/MS analysis; type: ADME, organism-based; parameters: time 0.083-24 hrs, dose 10 mg/kg, route po; conditions: in vivo
[15] = Oral bioavailability in Sprague-Dawley rat at 10 mg/kg measured for 0.083 to 24 hrs by LC-MS/MS analysis; type: ADME, organism-based; conditions: in vivo, time 0.083-24 hrs
[16] = Clearance in Sprague-Dawley rat at 2 mg/kg, iv measured for 0.033 to 24 hrs by LC-MS/MS analysis; type: ADME, organism-based; conditions: in vivo, time 0.033-24 hrs
SARS-CoV-2 [17] = experiment: Antiviral activity against SARS CoV-2 Alpha infected in African green monkey Vero E6 cells assessed as reduction in viral plaque incubated for 3 days; type: functional, organism-based; conditions: Severe acute respiratory syndrome coronavirus 2, Alpha, Vero C1008, 72 h
SARS-CoV-2 [18] = experiment: Antiviral activity against SARS CoV-2 Delta infected in African green monkey Vero E6 cells assessed as reduction in viral plaque incubated for 3 days; type: functional, organism-based; conditions: Severe acute respiratory syndrome coronavirus 2, Delta, Vero C1008, 72 h
SARS-CoV-2 [19] = experiment: Antiviral activity against SARS CoV-2 Omicron […] infected in African green monkey Vero E6 cells assessed as reduction in viral plaque incubated for 3 days; type: functional, organism-based; conditions: Severe acute respiratory syndrome coronavirus 2, Vero C1008, 72 h
SARS-CoV-2 [20] = experiment: Antiviral activity against wild-type SARS CoV-2 infected in African green monkey Vero E6 cells assessed as reduction in viral plaque incubated for 3 days; type: functional, organism-based; conditions: Severe acute respiratory syndrome coronavirus 2, Vero C1008, 72 h
Vero C1008 = experiment: as §1; type: toxicity, cell-based; conditions: chlorocebus sabaeus, vero c1008, 600 h; 600 h
SARS-CoV-2 [21] = experiment: Antiviral activity against SARS-CoV-2 USA_WA1/2020 infected in African green monkey Vero E6 cells expressing hACE2 assessed as reduction in virus-induced cytopathic effect incubated for 3 days in presence of P-gp efflux inhibitor by Cell Titer-Glo assay; type: functional, organism-based; conditions: Severe acute respiratory syndrome coronavirus 2, USA_WA1/2020, Vero C1008, 72 h
[22] = Severe acute respiratory syndrome coronavirus 2, Vero C1008

SMILES: O=C(NCc1cccs1)[C@@H]1CN(C(=O)c2cc(=O)[nH]c3ccccc23)CCN1c1ccc(Cl)c(Cl)c1
- EC50 (SARS-CoV-2 [1]; [22]): 5400 nM
- IC50 [2]: 270 nM
- CC50 at 600 h [3]: > 100000 nM

SMILES: O=C(NCc1ccc(Br)s1)[C@@H]1CN(C(=O)c2cccnc2)CCN1c1ccc(Cl)c(Cl)c1
- IC50 [2]: 1800 nM

SMILES: O=C(NS(=O)(=O)c1cccs1)[C@@H]1CN(C(=O)c2cccnc2)CCN1c1ccc(Cl)c(Cl)c1
- IC50 [2]: 9500 nM

SMILES: COc1cc(OC)c(NC(=O)[C@@H]2CN(C(=O)c3cnccc3OC)CCN2c2ccc(Cl)c(Cl)c2)cc1F
- EC50 (SARS-CoV-2 [1]; [22]): 1500 nM
- IC50 [2]: 400 nM
- CC50 at 600 h [3]: 79000 nM

SMILES: COc1ccncc1C(=O)N1CCN(c2ccc(Cl)c(Cl)c2)[C@H](C(=O)Nc2ccc(OC(F)F)cc2)C1
- IC50 [2]: 480 nM

SMILES: COc1ccncc1C(=O)N1CCN(c2ccc(Cl)c(Cl)c2)[C@H](C(=O)NCc2cccs2)C1.Cl
- half-life [4]: 18.6 min
- AUC(0-inf) [5]: 431 ng·h/mL
- AUC(0-t) [6]: 202 ng·h/mL
- Cmax [7]: 81.6 ng/mL
- AUC(0-t) [8]: 428 ng·h/mL
- Vd [9]: 2.07 L/kg
- Cmax [10]: 1240 ng/mL
- Tmax [11]: 1.8 min
- EC50 (SARS-CoV-2 [1]; vero e6): 530 nM
- half-life [12]: 86.4 min
- Tmax [13]: 30 min
- AUC(0-inf) [14]: 226 ng·h/mL
- bioavailability [15]: 10.5%
- clearance [16]: 77.4 mL/min/kg
- IC50 [2]: 170 nM

SMILES: O=C(NCc1cccs1)[C@@H]1CN(C(=O)c2cncc(F)c2)CCN1c1ccc(Cl)c(Cl)c1
- EC50 (SARS-CoV-2 [1]; [22]): 1500 nM
- IC50 [2]: 350 nM
- CC50 at 600 h [3]: > 100000 nM

SMILES: O=C(NCc1cccs1)[C@@H]1CN(C(=O)c2cncc(O)c2)CCN1c1ccc(Cl)c(Cl)c1
- EC50 (SARS-CoV-2 [1]; [22]): 15000 nM
- IC50 [2]: 440 nM

SMILES: O=C(NCc1cccs1)[C@@H]1CN(C(=O)c2cnccc2Cl)CCN1c1ccc(Cl)c(Cl)c1
- EC50 (SARS-CoV-2 [1]; [22]): 3100 nM
- IC50 [2]: 320 nM
- CC50 at 600 h [3]: > 100000 nM

SMILES: CC(C)(C)[C@H](NC(=O)C(F)(F)F)C(=O)N1C[C@H]2[C@@H]([C@H]1C(=O)N[C@H](C#N)C[C@@H]1CCNC1=O)C2(C)C
- CC50 at 600 h [3]: > 100000 nM

SMILES: O=C(NCc1cccs1)[C@@H]1CN(C(=O)c2cncc3cc[nH]c23)CCN1c1ccc(Cl)c(Cl)c1 [listing 1 of 2 here]
- EC50 (SARS-CoV-2 [1]; [22]): 540 nM
- IC50 [2]: 250 nM
- CC50 at 600 h [3]: 36000 nM

SMILES: CN(Cc1cccs1)C(=O)[C@@H]1CN(C(=O)c2cccnc2)CCN1c1ccc(Cl)c(Cl)c1
- IC50 [2]: 1300 nM

SMILES: O=C(NCc1ccc(F)s1)[C@@H]1CN(C(=O)c2cccnc2)CCN1c1ccc(Cl)c(Cl)c1
- EC50 (SARS-CoV-2 [1]; [22]): 1500 nM
- IC50 [2]: 400 nM
- CC50 at 600 h [3]: 79000 nM

SMILES: COc1ccc(NC(=O)[C@@H]2CN(C(=O)c3cccnc3)CCN2c2ccc(Cl)c(Cl)c2)cc1
- EC50 (SARS-CoV-2 [1]; [22]): 740 nM
- IC50 [2]: 200 nM
- CC50 at 600 h [3]: 95000 nM

SMILES: O=C(NCc1cccs1)[C@@H]1CN(C(=O)c2cccnc2)CCN1c1ccc(Cl)c(Cl)c1
- EC50 (SARS-CoV-2 [1]; [22]): 1300 nM
- CC50 at 600 h [3]: 100000 nM

SMILES: COc1ccncc1C(=O)N1CCN(c2ccc(Cl)c(Cl)c2)[C@H](C(=O)Nc2cc(F)c(OC)c(F)c2)C1
- EC50 (SARS-CoV-2 [1]; [22]): 3100 nM
- IC50 [2]: 430 nM

SMILES: O=C(NCc1cccs1)[C@@H]1CN(C(=O)c2cncc3cc[nH]c23)CCN1c1ccc(Cl)c(Cl)c1 [listing 2 of 2 here]
- EC50 (SARS-CoV-2 [1]; vero e6): 530 nM
- EC50 (SARS-CoV-2 [17]): 130 nM
- EC50 (SARS-CoV-2 [18]): 220 nM
- EC50 (SARS-CoV-2 [19]): 80 nM
- IC50 [2]: 210 nM
- EC50 (SARS-CoV-2 [20]): 240 nM
- CC50 (Vero C1008): 42000 nM

SMILES: COc1ccncc1C(=O)N1CCN(c2ccc(Cl)c(Cl)c2)[C@H](C(=O)NCc2cccs2)C1
- EC50 (SARS-CoV-2 [1]; [22]): 780 nM
- CC50 at 600 h [3]: > 100000 nM

SMILES: COc1cccc2[nH]c(C(=O)N[C@@H](CC(C)C)C(=O)N[C@H](C[C@@H]3CCNC3=O)C(=O)CO)cc12
- EC50 (SARS-CoV-2 [21]): 220 nM

SMILES: COc1ccncc1C(=O)N1CCN(c2ccc(Cl)c(Cl)c2)[C@H](C(=O)NCc2ccc(F)s2)C1 [listing 1 of 2 here]
- EC50 (SARS-CoV-2 [1]; [22]): 1500 nM
- IC50 [2]: 410 nM
- CC50 at 600 h [3]: > 100000 nM

SMILES: COc1ccncc1C(=O)N1CCN(c2ccc(Cl)c(Cl)c2)[C@H](C(=O)NCc2ccc(F)s2)C1 [listing 2 of 2 here]
- EC50 (SARS-CoV-2 [1]; vero e6): 1400 nM
- IC50 [2]: 350 nM
- CC50 (Vero C1008): 100000 nM
